Patent US10189835B2, “Derivatives and methods of treating hepatitis B infections” (Novira Therapeutics, Inc., priority 2014, dated 2019)

Tested on: HBV replication in HepG2.2.15 cells
Assay: HBV replication inhibition assay (BDNA assay)
Assay type: cell-based
Details: 6 days of treatment, encapsidated HBV DNA in supernatant by branched DNA QuantiGene assay, listed as 828 E1
Excerpt: HBV replication inhibition by the compounds of this invention could be determined in cells infected or transfected with HBV, or cells with stably integrated HBV, such as HepG2.2.15 cells (Sells et al. 1987). In this example, HepG2.2.15 cells were maintained in cell culture medium containing 10% fetal bovine serum (FBS), Geneticin, L-glutamine, penicillin and streptomycin. HepG2.2.15 cells could be seeded in 96-well plates at a density of 40,000 cells/well and be treated with serially diluted compounds at a final DMSO concentration of 0.5% either alone or in combination by adding drugs in a checker box format. Cells were incubated with compounds for three days, after which medium was removed and fresh medium containing compounds was added to cells and incubated for another three days. At day 6, supernatant was removed and treated with DNase at 37° C. for 60 minutes, followed by enzyme inactivation at 75° C. for 15 minutes. Encapsidated HBV DNA was released from the virions and covalently linked HBV polymerase by incubating in lysis buffer (Affymetrix QS0010) containing […] proteinase K at 50° C. for 40 minutes. HBV DNA was denatured by addition of 0.2 M NaOH and detected using a branched DNA (BDNA) QuantiGene assay kit according to manufacturer recommendation (Affymetrix). HBV DNA levels could also be quantified using qPCR, based on amplification of encapsidated HBV DNA extraction with QuickExtraction Solution (Epicentre Biotechnologies) and amplification of HBV DNA using HBV specific PCR probes that can hybridize to HBV DNA and a fluorescently labeled probe for quantitation. In addition, cell viability of HepG2.2.15 cells incubated with test compounds alone or in combination was determined by using CellTitre-Glo reagent according to the manufacturer protocol (Promega). The mean background signal from wells containing only culture medium was subtracted from all other samples, and percent inhibition at each compound concentration was calculated by normalizing to signals from HepG2.2.15 cells treated with 0.5% DMSO using equation E1. % inhibition=(DMSOave−Xi)/DMSOave×100% E1: […]
where DMSOave is the mean signal calculated from the wells that were treated with DMSO control (0% inhibition control) and Xi is the signal measured from the individual wells. EC50 values, effective concentrations that achieved 50% inhibitory effect, were determined by non-linear fitting using Graphpad Prism software (San Diego, Calif.) and equation E2 Y=Ymin+(Ymax−Ymin)/(1+10(LogEC50-X)×HillSlope) E2: […]
where Y represents percent inhibition values and X represents the logarithm of compound concentrations.
Selected compounds of the invention were assayed in the HBV replication assay (BDNA assay), as described above and a representative group of these active compounds is shown in Table 3. […] In Table 3, “A” represents 0.01<EC50<0.10; “B” represents 0.10<EC50<0.50; and “C” represents 0.50<EC50<1.0.

| SMILES | EC50 [nM] |
| --- | --- |
| CON(C)C(=O)c1n[nH]c2c1CN(C(=O)Nc1cccc(Cl)c1)C(C)C2 (stereo not shown) [Compound 828 E1, N5-(3-chlorophenyl)-N3-methoxy-N3,6-dimethyl-1,4,6,7-tetrahydropyrazolo [4,3-c]pyridine-3,5-dicarboxamide] | 10 to 100 |

Same assay, conditions: 6 days of treatment, encapsidated HBV DNA in supernatant by branched DNA QuantiGene assay, listed as 828 E2

| SMILES | EC50 [nM] |
| --- | --- |
| CON(C)C(=O)c1n[nH]c2c1CN(C(=O)Nc1cccc(Cl)c1)C(C)C2 (stereo not shown) [Compound 828 E2, N5-(3-chlorophenyl)-N3-methoxy-N3,6-dimethyl-1,4,6,7-tetrahydropyrazolo [4,3-c]pyridine-3,5-dicarboxamide] | 100 to 500 |

Same assay, conditions: Hepatitis B virus, HepG2.2.15, 144 h, 6 days of treatment, encapsidated HBV DNA in supernatant by branched DNA QuantiGene assay

| SMILES | EC50 [nM] |
| --- | --- |
| CON(C)C(=O)c1n[nH]c2c1CN(C(=O)Nc1cccc(Cl)c1)CC2 [Compound 434, N5-(3-chlorophenyl)-N3-methoxy-N3-methyl-1,4,6,7-tetrahydropyrazolo [4,3-c]pyridine-3,5-dicarboxamide] | 10 to 100 |
| CCCC(=O)c1n[nH]c2c1CN(C(=O)Nc1cccc(Cl)c1)CC2 [Compound 561] | 10 to 100 |
| CN(O)C(=O)c1n[nH]c2c1CN(C(=O)Nc1cccc(Cl)c1)CC2 [Compound 587, N5-(3-chlorophenyl)-N3-hydroxy-N3-methyl-6,7-dihydro-1H-pyrazolo[4,3-c]pyridine-3,5(4H)-dicarboxamide] | 500 to 1000 |
| CCN(OC)C(=O)c1n[nH]c2c1CN(C(=O)Nc1cccc(Cl)c1)CC2 [Compound 594, N5-(3-chlorophenyl)-N3-ethyl-N3-methoxy-1,4,6,7-tetrahydropyrazolo [4,3-c]pyridine-3,5-dicarboxamide] | 10 to 100 |
| CON(C(=O)c1n[nH]c2c1CN(C(=O)Nc1cccc(Cl)c1)CC2)C(C)C [Compound 595, N5-(3-chlorophenyl)-N3-isopropyl-N3-methoxy-1,4,6,7-tetrahydropyrazolo [4,3-c]pyridine-3,5-dicarboxamide] | 100 to 500 |
| CCON(C)C(=O)c1n[nH]c2c1CN(C(=O)Nc1cccc(Cl)c1)CC2 [Compound 599] | 10 to 100 |
| CC(C)ON(C)C(=O)c1n[nH]c2c1CN(C(=O)Nc1cccc(Cl)c1)CC2 [Compound 600, N5-(3-chlorophenyl)-N3-isopropoxy-N3-methyl-1,4,6,7-tetrahydropyrazolo[4,3-c]pyridine-3,5-dicarboxamide] | 10 to 100 |
| CCC(=O)c1n[nH]c2c1CN(C(=O)Nc1cccc(Cl)c1)CC2 [Compound 695, N-(3-chlorophenyl)-3-propanoyl-1,4,6,7-tetrahydropyrazolo [4,3-c]pyridine-5-carboxamide] | 100 to 500 |
| O=C(Nc1cccc(Cl)c1)N1CCc2[nH]nc(C(=O)N3CC(O)CO3)c2C1 (stereo not shown) [Compound 697, N-(3-chlorophenyl)-3-(4-hydroxyisoxazolidine-2-carbonyl)-1,4,6,7-tetrahydropyrazolo [4,3-c]pyridine-5-carboxamide] | 500 to 1000 |
| O=C(Nc1cccc(Cl)c1)N1CCc2[nH]nc(C(=O)N3CC(F)CO3)c2C1 (stereo not shown) [Compound 698, N-(3-chlorophenyl)-3-(4-fluoroisoxazolidine-2-carbonyl)-1,4,6,7-tetrahydropyrazolo[4,3-c]pyridine-5-carboxamide] | 10 to 100 |
| O=C(Nc1cccc(Cl)c1)N1CCc2[nH]nc(C(=O)N3CCCO3)c2C1 [Compound 699, N-(3-chlorophenyl)-3-(isoxazolidine-2-carbonyl)-1,4,6,7-tetrahydropyrazolo[4,3-c]pyridine-5-carboxamide] | 100 to 500 |
| CCCON(C)C(=O)c1n[nH]c2c1CN(C(=O)Nc1cccc(Cl)c1)CC2 [Compound 795] | 100 to 500 |
| CN(OCCO)C(=O)c1n[nH]c2c1CN(C(=O)Nc1cccc(Cl)c1)CC2 [Compound 796] | 100 to 500 |
| CC(C)CON(C)C(=O)c1n[nH]c2c1CN(C(=O)Nc1cccc(Cl)c1)CC2 [Compound 798] | 100 to 500 |
| COCCON(C)C(=O)c1n[nH]c2c1CN(C(=O)Nc1cccc(Cl)c1)CC2 [Compound 800] | 100 to 500 |
| CN(OCC1CC1)C(=O)c1n[nH]c2c1CN(C(=O)Nc1cccc(Cl)c1)CC2 [Compound 803] | 100 to 500 |
| CN(OC1CCC1)C(=O)c1n[nH]c2c1CN(C(=O)Nc1cccc(Cl)c1)CC2 [Compound 805] | 10 to 100 |
| CN(OC1CCOC1)C(=O)c1n[nH]c2c1CN(C(=O)Nc1cccc(Cl)c1)CC2 (stereo not shown) [Compound 910, N5-(3-chlorophenyl)-N3-methyl-N3-tetrahydrofuran-3-yloxy-1,4,6,7-tetrahydropyrazolo[4,3-c]pyridine-3,5-dicarboxamide] | 100 to 500 |
| CN1CC(ON(C)C(=O)c2n[nH]c3c2CN(C(=O)Nc2cccc(Cl)c2)CC3)C1 [Compound 912, N5-(3-chlorophenyl)-N3-methyl-N3-(1-methylazetidin-3-yl)oxy-1,4,6,7-tetrahydropyrazolo[4,3-c]pyridine-3,5-dicarboxamide] | 100 to 500 |
| CN(C)N(C)C(=O)c1n[nH]c2c1CN(C(=O)Nc1cccc(Cl)c1)CC2 [Compound 937] | 10 to 100 |
